Test results from patent US20210147900A1, “METHODS AND COMPOSITIONS FOR DETECTING BETA-HYDROXYBUTYRATE IN BIOLOGICAL FLUIDS” (F.A.T. Stats LLC, priority 2019, published 2021).

Experiment: Solubility / appearance of coenzyme Q with β-cyclodextrin in water or Tris/NaOH buffer
Type: physicochemical
Conditions: for Appearance: in water, 5 hours at 75° C. and 5 hours at 85° C.
Description: First, 0.107 grams of β-cyclodextrin was dissolved in 4.8 grams of the Tris/NaOH buffer solution (pH 8.7). This mixture this heated at 45° C. for 5 minutes and then 0.082 g of coenzyme Q0 was added. Heating was continued until coenzyme Q0 was no longer visible as a solid. The coenzyme Q0/β-cyclodextrin solution was used within 2 hours of making it. Alternatively, 0.0074 grams of coenzyme Q0 and 0.0481 grams of β-cyclodextrin was mixed with 1.2070 grams water. This mixture was heated at 50° C. for 20 minutes with stirring. […] This procedure results in a fully solubilized form of coenzyme Q0 which is optically transparent and has no visible particles of coenzyme Q0 in the mixture. It is important that the coenzyme Q0 mixture is fully soluble so that it may be mixed with other water-soluble ingredients and applied to a paper test strip for further reactions with biological solutes. If the coenzyme Q0/β-cyclodextrin mixture is not water soluble, it cannot provide a uniform distribution of reactions for the test for BHB in a biological fluid as disclosed herein.
The procedure for solubilizing coenzyme Q10 in U.S. Patent Application Publication No. US 2007/0202090 A1 was followed and results are listed below in Table 17. Coenzyme Q10 and β-cyclodextrin were combined with water in the following molar ratios of coenzyme Q10 to β-cyclodextrin: 1:1; 1:5; and 1:10. Each solution was heated for 5 hours at 75° C. and then an additional 5 hours at 85° C.

Structure (SMILES)	Appearance of mixture with β-cyclodextrin in water (0.0074 g coenzyme Q0, 0.0481 g β-cyclodextrin, 1.2070 g water, 50° C. for 20 minutes with stirring)	Appearance (molar ratio coenzyme Q10 to β-cyclodextrin 1:1)	Appearance (molar ratio coenzyme Q10 to β-cyclodextrin 1:5)	Appearance (molar ratio coenzyme Q10 to β-cyclodextrin 1:10)	Incorporation in basic buffer solution with β-cyclodextrin (same procedure as Example 2 (Tris/NaOH buffer pH 8.7, heating))
COC1=C(OC)C(=O)C(C)=CC1=O [coenzyme Q0, 2,3-dimethoxy-5-methyl-p-benzoquinone]	transparent solution with no visible particles				
COC1=C(OC)C(=O)C(C/C=C(\C)CC/C=C(\C)CC/C=C(\C)CC/C=C(\C)CC/C=C(\C)CC/C=C(\C)CC/C=C(\C)CC/C=C(\C)CC/C=C(\C)CCC=C(C)C)=C(C)C1=O [coenzyme Q10]		not transparent;	not transparent;	not transparent;	could not be adequately incorporated
